The values below come from patent US7868014B2, “1-(hetero)aryl-3-amino-pyrrolidine derivatives for use as mGluR3 antagonists” (Eli Lilly and Company, priority 2004, dated 2011).

SMILES strings stand for the structures. Structures can show the parent of a compound that is named as a salt.

The target of the first experiment is T1, human mGluR3 (Homo sapiens, UniProt Q14832).
T1 construct: expressed in transfected cells; host or cells: AV12 cells (adenovirus-transformed Syrian hamster cell line) stably expressing RGT and GLT, co-transfected with Galpha15
T1 sequence (Q14832 23-879): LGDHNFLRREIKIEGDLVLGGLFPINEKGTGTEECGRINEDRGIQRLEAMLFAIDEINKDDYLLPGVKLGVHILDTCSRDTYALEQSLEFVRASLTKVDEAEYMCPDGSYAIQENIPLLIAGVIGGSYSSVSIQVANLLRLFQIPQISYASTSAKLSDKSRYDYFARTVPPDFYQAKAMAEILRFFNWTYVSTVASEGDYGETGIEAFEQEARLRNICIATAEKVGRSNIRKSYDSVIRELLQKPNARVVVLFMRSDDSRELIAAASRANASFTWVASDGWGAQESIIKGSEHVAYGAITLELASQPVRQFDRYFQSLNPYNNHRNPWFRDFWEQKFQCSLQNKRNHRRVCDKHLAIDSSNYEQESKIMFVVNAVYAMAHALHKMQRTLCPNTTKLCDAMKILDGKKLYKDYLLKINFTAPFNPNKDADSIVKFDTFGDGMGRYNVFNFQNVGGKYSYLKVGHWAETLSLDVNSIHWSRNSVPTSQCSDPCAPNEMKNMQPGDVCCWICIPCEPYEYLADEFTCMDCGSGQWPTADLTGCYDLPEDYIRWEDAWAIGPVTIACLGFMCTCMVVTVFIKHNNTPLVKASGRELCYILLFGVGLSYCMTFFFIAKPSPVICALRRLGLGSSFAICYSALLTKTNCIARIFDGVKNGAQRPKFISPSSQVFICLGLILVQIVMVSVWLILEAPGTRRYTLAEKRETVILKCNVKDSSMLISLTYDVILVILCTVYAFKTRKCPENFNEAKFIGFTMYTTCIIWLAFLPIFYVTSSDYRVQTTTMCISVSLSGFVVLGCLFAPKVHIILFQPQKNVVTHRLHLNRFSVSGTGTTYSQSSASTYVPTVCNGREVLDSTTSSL
The experiment can be described thus: Antagonism of glutamate-induced increase in intracellular calcium (FLIPR) in mGluR3-expressing AV12 cells. The experiment is classed as cell-based. To be noted: antagonism of 50 μM glutamate-induced calcium response, AV12 cells expressing human mGluR3 and Gα15, Fluo-3AM. Here is the method: Antagonism of Glutamate-Induced Increase in Intracellular Calcium with a mGluRs Expressing Cell Line
Introduce human mGluR3 and the promiscuous G-protein, Galpha15 (Gα15) into AV12 cells (an adenovirus-transformed Syrian hamster cell line) that stably express RGT (Rat Glutamate Transporter) and GLT (Glutamate Like Transporter). Maintain the expression of these four exogenous genes by culturing the cells in DMEM (Gibco, 11960-051) supplemented with 5% dialyzed fetal bovine serum, 2 mM glutamine, 1 mM sodium pyruvate, 10 mM HEPES, 100 μg/mL G418, 1 μg/mL puromycin, 1 μg/mL blastocidin, and 100 μg/mL zeocin. Passage confluent cultures weekly. The expression of Gα15 allows the change of the signaling pathway of the mGlu3 receptor to one that can be easily monitored through the release of intracellular calcium before and after the addition of drugs on a Fluorometric Imaging Plate Reader (i.e. FLIPR, Molecular Devices). Use the following buffers throughout as the Assay Buffer: HBSS (BioWhittaker, 10-527F) supplemented with 20 mM HEPES (Biowhittaker, 17-737E) at pH 7.4. Prepare a stock solution of 4 mM Fluo-3AM (Molecular Probes, F-1241), a calcium sensitive dye by adding 2.21 mL of 20% pluronate in DMSO to a vial containing 10 mg of Fluo-3AM. Sonicate the solution for 30 minutes to facilitate solubilization of the Fluo-3AM and then store at −20° C. Prepare the working solution of 8 μM Fluo-3AM by diluting the stock Fluo-3AM (4 mM) 500-fold into Assay Buffer. Harvest cells 24 h prior to assay using Hank's based cell dissociation solution (Specialty Media, a division of Cell & Molecular Technologies, S-004-B) and plate at a density of 50,000 cells per well in a 96-well poly-D-lysine treated black walled, clear bottom plate (Becton Dickinson, 356640). Incubate cells with 8 μM Fluo-3AM (50 μL per well) for 2 hours at 25° C. Following the dye-loading of the cells, remove the 8 μM Fluo-3AM and replace with Assay Buffer pre-warmed to 37° C. (50 μL per well). Ready the cells for assay on the FLIPR. Set the stage of the FLIPR to 34.5° C. prior to initiation of the assay. Perform a two addition FLIPR assay. Pre-warm the reagents for both additions (compounds and glutamate) to 37° C. prior to initiation of the assay. Add the test compound to the cell plate (50 μL per well) after taking an initial fluorescent read of the cell plate for 10 seconds. Test compounds in a 10 point concentration response curve starting at a final concentration on the cells of 12.5 μM with 3-fold dilutions in Assay Buffer/1.25% DMSO. Collect data every second for the first 30 seconds and then every 3 seconds until the second addition made at 2 minutes. Perform the second addition of 100 μM glutamate in Assay Buffer (100 μL per well for a final glutamate concentration of 50 μM on the cells) 2 minutes after the addition of compound. Collect the second addition data every second for 30 seconds and then every 3 seconds until the end of the run at total time of 3.25 minutes. Measure the response as maximal peak height in Relative Fluorescent Units (RFUs). Define the assay window as the maximal response obtained by 50 μM glutamate minus the response obtained by buffer alone. Express the results as a percent of the assay window.
As for `O=[N+]([O-])c1ccc(N2CC[C@H](NCc3ccc(Cl)cc3Cl)C2)nc1` [Example 1, (S)-(2,4-Dichlorobenzyl)-[1-(5-nitropyridin-2-yl)-pyrrolidin-3-yl]-amine], the IC50 was 191 nM. Same read-out and setting: with `CC(=O)c1ccc(N2CC[C@H](NCc3ccc(Cl)cc3Cl)C2)s1` [Example 6, (S)-1-{5-[3-(2,4-Dichlorobenzylamino)-pyrrolidin-1-yl]-thiophen-2-yl}-ethanone] the figure was 3910 nM. For the compound `Clc1ccc(CN[C@H]2CCN(c3ccc(I)cn3)C2)c(Cl)c1` [Example 23, (S)-(2,4-Dichlorobenzyl)-[1-(5-iodopyridin-2-yl)-pyrrolidin-3-yl]-amine hydrochloride], the concentration for half-maximal inhibition (IC50) worked out at 607 nM. Same read-out and setting: with `Clc1ccc(CN[C@H]2CCN(c3ncc(Br)cn3)C2)c(Cl)c1` [Example 28, (S)-[1-(5-Bromopyrimidin-2-yl)-pyrrolidin-3-yl]-(2,4-dichlorobenzyl)-amine] the figure was 340 nM. Still for that read-out and setting: to `Fc1ccc(N2CC[C@H](NCc3ccccc3I)C2)cn1` [Example 59, (S)-[1-(6-Fluoropyridin-3-yl)-pyrrolidin-3-yl]-(2-iodobenzyl)-amine hydrochloride] belongs 5780 nM; to `C#Cc1ccc(N2CC[C@H](NCc3ccc(Cl)cc3Cl)C2)nc1` [Example 87, (S)-(2,4-Dichlorobenzyl)-[1-(5-ethynylpyridin-2-yl)-pyrrolidin-3-yl]-amine], 143 nM; to `FC1CN(c2ncc(Br)cn2)CC1NCc1ccc(Cl)cc1Cl` (centres unmarked) [Example 101, [1-(5 -Bromopyrimidin-2-yl)-4-fluoropyrrolidin-3-yl]-(2,4-dichlorobenzyl)-amine hydrochloride], 4930 nM.

In the case of `Clc1ccc(CN[C@H]2CCN(c3ccc(-c4ccccc4)cn3)C2)c(Cl)c1` [Example 108, (S)-(2,4-Dichlorobenzyl)-[1-(5-phenylpyridin-2-yl)-pyrrolidin-3-yl]-amine], the IC50 worked out at 2270 nM. In the case of `FC(F)(F)c1ccc(CN[C@H]2CCN(c3ncc(Br)cn3)C2)c(Cl)c1` [Example 112, (3S)-[1-(5-Bromopyrimidin-2-yl)-pyrrolidin-3-yl]-(2-chloro-4-trifluoromethylbenzyl)-amine], the half-maximal inhibitory concentration (IC50) was determined as 1650 nM.

Consider `O=C1CN(c2ncc(Br)cn2)CC1NCc1ccc(Cl)cc1Cl` (centres unmarked) [Example 121, 1-(5-Bromopyrimidin-2-yl)-4-(2,4-dichlorobenzylamino)-pyrrolidin-3-one], for which the IC50 came to 1680 nM.

`N#Cc1cnc(N2CC[C@H](NCc3ccc(Cl)cc3Cl)C2)nc1` [Example 123, (S)-2-[3-(2,4-Dichlorobenzylamino)-pyrrolidin-1-yl]-pyrimidine-5-carbonitrile]: the 50% inhibitory concentration (IC50) turned out to be 1180 nM.

For `Clc1cnc(N2CC[C@H](NCc3ccc(Cl)cc3Cl)C2)nc1` [Example 134, (S)-[1-(5-Chloropyrimidin-2-yl)-pyrrolidin-3-yl]-(2,4-dichlorobenzyl)-amine], the IC50 was 77 nM.

Another experiment has as its system male Sprague-Dawley rats. The experiment in a line: Rat dural plasma protein extravasation (PPE) model. To be noted: i.v. (tail-vein injection), 60 min before trigeminal ganglion stimulation; dose that gives an extravasation ratio of approximately 1. The experiment is classed as in vivo. Here is the method: Rat Dural Plasma Protein Extravasation (PPE) Model
Prepare 100 μg/ml stock solution of test compound in a DMSO/saline (20%/80% v/v) solution and make subsequent dilutions with saline. Dose male Sprague-Dawley rats from Harlan Laboratories (250-350 g) with test compound or saline vehicle by oral gavage (2 mL/kg) or intravenous tail-vein injection (1 mL/kg) 45 minutes prior to administration of anesthesia and placement in a stereotaxic frame for implantation of stimulating electrodes. The rats dosed via the oral route are fasted overnight prior to dosing. Fifteen minutes prior to trigeminal ganglion stimulation, the rats are anesthetized with Nembutal (60 mg/kg, ip.) and placed in a stereotaxic frame (David Kopf Instruments) with the incisor bar set at −2.5 mm. […]
A fluorescence microscope (Zeiss) equipped with a grating monochromator and a spectrophotometer is used to quantify the amount of FITC-BSA dye in each dural sample. […] This facilitates the computer-controlled movement of the stage, with fluorescence measurements at 25 points (500 μm steps) on each dural sample. […] The extravasation ratio (i.e. the ratio of the amount of extravasation in the dura from the stimulated side compared to the unstimulated side) is calculated. […]
For the compound `Clc1ccc(CN[C@H]2CCN(c3ncc(Br)cn3)C2)c(Cl)c1` [Example 28, (S)-[1-(5-Bromopyrimidin-2-yl)-pyrrolidin-3-yl]-(2,4-dichlorobenzyl)-amine], the “ID100 (μg/mL) i.v.” value was found to be 3 µg/mL.

The same experiment, now with this note: p.o. (oral gavage), 60 min before trigeminal ganglion stimulation; dose that gives an extravasation ratio of approximately 1.
As to `Clc1ccc(CN[C@H]2CCN(c3ncc(Br)cn3)C2)c(Cl)c1` [Example 28, (S)-[1-(5-Bromopyrimidin-2-yl)-pyrrolidin-3-yl]-(2,4-dichlorobenzyl)-amine], the “ID100 (μg/mL) p.o.” value was found to be 3 µg/mL.
